The values below come from ChEMBL document CHEMBL1156331, “7-Phenylplatensimycin and 11-methyl-7-phenylplatensimycin: more potent analogs of platensimycin” (2010).

Format in all cases: functional
The test system of test [1] is Staphylococcus aureus. Put plainly: Antimicrobial activity against methicillin-sensitive Staphylococcus aureus isolate 3.
Test [2] relates to Enterococcus faecalis. In words: Antimicrobial activity against vancomycin-resistant Enterococcus faecalis isolate 12.
Test [3] has as its system Staphylococcus aureus. In words: Antimicrobial activity against methicillin-resistant Staphylococcus aureus isolate 8.
For test [4], the system named is Staphylococcus aureus. In words: Antimicrobial activity against methicillin-sensitive Staphylococcus aureus isolate 4.
Test [5] has as its system Staphylococcus aureus. In words: Antimicrobial activity against methicillin-resistant Staphylococcus aureus isolate 6.
Test [6] concerns Staphylococcus aureus. Put plainly: Antimicrobial activity against vancomycin-insensitive Staphylococcus aureus isolate 10.
Test [7] relates to Staphylococcus aureus. In words: Antimicrobial activity against methicillin-sensitive Staphylococcus aureus isolate 1.
Test [8] deals with Staphylococcus aureus. Put plainly: Antimicrobial activity against methicillin-resistant Staphylococcus aureus isolate 7.
In test [9] the test system is Enterococcus faecalis. Put plainly: Antimicrobial activity against vancomycin-resistant Enterococcus faecalis isolate 13.
The test system of test [10] is Enterococcus faecium. In words: Antimicrobial activity against vancomycin-resistant Enterococcus faecium isolate 15.
Test [11] has as its system Staphylococcus aureus. In words: Antimicrobial activity against vancomycin-insensitive Staphylococcus aureus isolate 9.
The subject of test [12] is Staphylococcus aureus. In words: Antimicrobial activity against methicillin-sensitive Staphylococcus aureus isolate 2.
Test [13] relates to Staphylococcus aureus. Put plainly: Antimicrobial activity against methicillin-resistant Staphylococcus aureus isolate 5.
Test [14] concerns Enterococcus faecalis. Put plainly: Antimicrobial activity against vancomycin-sensitive Enterococcus faecalis isolate 11.
Test [15] concerns Enterococcus faecium. Put plainly: Antimicrobial activity against vancomycin-resistant Enterococcus faecium isolate 14.

In brackets after ≈: the same amount, converted by molar mass.

For orientation: MIC means the smallest concentration in the dilution series that meets the test's criterion for growth inhibition. High values mean weaker potency, low ones greater potency.

In the case of `C[C@@H]1C2OC3(C)CC4(C=CC(=O)C(C)(CCC(=O)Nc5c(O)ccc(C(=O)O)c5O)C24)CC13` (stereo partly drawn), the minimal inhibitory concentration (MIC) is 8 µg/mL (≈ 17.6 µM) against Staphylococcus aureus [1]; 32 µg/mL (≈ 70.3 µM) against Enterococcus faecalis [2]; 1 µg/mL (≈ 2.2 µM) with Staphylococcus aureus [3]; less than 0.25 µg/mL with Staphylococcus aureus [4]; 0.5 µg/mL (≈ 1.1 µM) in the test with Staphylococcus aureus [5]; 8 µg/mL (≈ 17.6 µM) with Staphylococcus aureus [6]. For the same compound, the MIC in the test with Staphylococcus aureus [7] turned out to be 0.25 µg/mL (≈ 0.549 µM); in the test with Staphylococcus aureus [8], 0.5 µg/mL (≈ 1.1 µM); with Enterococcus faecalis [9], 64 µg/mL (≈ 141 µM); against Enterococcus faecium [10], 1 µg/mL (≈ 2.2 µM); in the test with Staphylococcus aureus [11] it was 2 µg/mL (≈ 4.39 µM); against Staphylococcus aureus [12] it was 1 µg/mL (≈ 2.2 µM). For the same compound, the MIC amounted to 0.25 µg/mL (≈ 0.549 µM) with Staphylococcus aureus [13], 1 µg/mL (≈ 2.2 µM) in the test on Enterococcus faecalis [14] and 2 µg/mL (≈ 4.39 µM) in the test on Enterococcus faecium [15].
Turning to `CC12C[C@@]34C=CC(=O)[C@@](C)(CCC(=O)Nc5c(O)ccc(C(=O)O)c5O)C3[C@H](CC1C4)O2` (stereo partly drawn) [PLATENSIMYCIN], the MIC was 8 µg/mL (≈ 18.1 µM) against Staphylococcus aureus [1]; 8 µg/mL (≈ 18.1 µM) with Enterococcus faecalis [2]; 1 µg/mL (≈ 2.27 µM) against Staphylococcus aureus [3]; less than 0.25 µg/mL against Staphylococcus aureus [4]; 0.25 µg/mL (≈ 0.566 µM) in the test with Staphylococcus aureus [5]; 2 µg/mL (≈ 4.53 µM) in the test with Staphylococcus aureus [6]. Also, the minimal inhibitory concentration (MIC) against Staphylococcus aureus [7] was 1 µg/mL (≈ 2.27 µM); with Staphylococcus aureus [8], 0.25 µg/mL (≈ 0.566 µM); in the test with Enterococcus faecalis [9] it was 8 µg/mL (≈ 18.1 µM); against Enterococcus faecium [10], no more than 0.5 µg/mL; with Staphylococcus aureus [11], 2 µg/mL (≈ 4.53 µM); with Staphylococcus aureus [12], 2 µg/mL (≈ 4.53 µM). Also, the values for the minimum inhibitory concentration (MIC) against Staphylococcus aureus [13], against Enterococcus faecalis [14] and in the test on Enterococcus faecium [15] were 0.25 µg/mL (≈ 0.566 µM), no more than 0.5 µg/mL and no more than 0.5 µg/mL, respectively.
In the case of `CN[C@H](CC(C)C)C(=O)N[C@H]1C(=O)N[C@@H](CC(N)=O)C(=O)N[C@H]2C(=O)N[C@H]3C(=O)N[C@H](C(=O)N[C@H](C(=O)O)c4cc(O)cc(O)c4-c4cc3ccc4O)[C@H](O)c3ccc(c(Cl)c3)Oc3cc2cc(c3O[C@@H]2O[C@H](CO)[C@@H](O)[C@H](O)[C@H]2O[C@H]2C[C@](C)(N)[C@H](O)[C@H](C)O2)Oc2ccc(cc2Cl)[C@H]1O` [VANCOMYCIN], the MIC against Enterococcus faecium [10] is greater than 128 µg/mL; in the test with Enterococcus faecalis [14], 2 µg/mL (≈ 1.38 µM); against Enterococcus faecium [15], greater than 128 µg/mL.
As to `CC12CC34C=CC(=O)C(C)(CCC(=O)Nc5c(O)ccc(C(=O)O)c5O)C3C(O1)[C@@H](Br)C2C4` (stereo partly drawn), the MIC amounted to 32 µg/mL (≈ 61.5 µM) against Staphylococcus aureus [1]; 128 µg/mL (≈ 246 µM) in the test with Enterococcus faecalis [2]; 4 µg/mL (≈ 7.69 µM) with Staphylococcus aureus [3]; 1 µg/mL (≈ 1.92 µM) against Staphylococcus aureus [4]; 2 µg/mL (≈ 3.84 µM) against Staphylococcus aureus [5]; 16 µg/mL (≈ 30.7 µM) in the test on Staphylococcus aureus [6]. In addition, the MIC is 1 µg/mL (≈ 1.92 µM) in the test on Staphylococcus aureus [7]; 1 µg/mL (≈ 1.92 µM) against Staphylococcus aureus [8]; greater than 128 µg/mL in the test with Enterococcus faecalis [9]; 16 µg/mL (≈ 30.7 µM) against Enterococcus faecium [10]; 8 µg/mL (≈ 15.4 µM) in the test with Staphylococcus aureus [11]; 8 µg/mL (≈ 15.4 µM) against Staphylococcus aureus [12]. Besides, the minimum inhibitory concentration (MIC) with Staphylococcus aureus [13] stood at 1 µg/mL (≈ 1.92 µM); in the test with Enterococcus faecalis [14], 4 µg/mL (≈ 7.69 µM); against Enterococcus faecium [15] it was 4 µg/mL (≈ 7.69 µM).
Regarding `Cc1onc(-c2ccccc2)c1C(=O)N[C@@H]1C(=O)N2[C@@H]1SC(C)(C)[C@@H]2C(=O)O` [OXACILLIN], the MIC is less than 0.25 µg/mL against Staphylococcus aureus [1]; greater than 32 µg/mL against Staphylococcus aureus [3]; less than 0.25 µg/mL with Staphylococcus aureus [4]; greater than 32 µg/mL with Staphylococcus aureus [5]; greater than 32 µg/mL against Staphylococcus aureus [6]; less than 0.25 µg/mL in the test with Staphylococcus aureus [7]. The minimal inhibitory concentration (MIC) against Staphylococcus aureus [8] is greater than 32 µg/mL; in the test with Staphylococcus aureus [11] it was greater than 32 µg/mL; against Staphylococcus aureus [12] it was less than 0.25 µg/mL; against Staphylococcus aureus [13], greater than 32 µg/mL.
As to `CC1=CC(=O)C(C)(CCC(=O)Nc2c(O)ccc(C(=O)O)c2O)C2C3CC4CC12CC4(C)O3` (stereo not drawn), the minimum inhibitory concentration (MIC) against Staphylococcus aureus [1] is 2 µg/mL (≈ 4.39 µM); in the test on Enterococcus faecalis [2], 8 µg/mL (≈ 17.6 µM); against Staphylococcus aureus [3], 2 µg/mL (≈ 4.39 µM); in the test with Staphylococcus aureus [4] it was 0.5 µg/mL (≈ 1.1 µM); against Staphylococcus aureus [5], 0.5 µg/mL (≈ 1.1 µM); against Staphylococcus aureus [6], 4 µg/mL (≈ 8.78 µM). Further, the MIC against Staphylococcus aureus [7] is 0.5 µg/mL (≈ 1.1 µM); against Staphylococcus aureus [8], 0.25 µg/mL (≈ 0.549 µM); against Enterococcus faecalis [9] it was 16 µg/mL (≈ 35.1 µM); against Enterococcus faecium [10] it was no more than 0.5 µg/mL; against Staphylococcus aureus [11], 4 µg/mL (≈ 8.78 µM); in the test with Staphylococcus aureus [12], 4 µg/mL (≈ 8.78 µM). The values for the MIC against Staphylococcus aureus [13], with Enterococcus faecalis [14] and with Enterococcus faecium [15] were 1 µg/mL (≈ 2.2 µM), no more than 0.5 µg/mL and 2 µg/mL (≈ 4.39 µM), respectively.
As to `CC1(CCC(=O)Nc2c(O)ccc(C(=O)O)c2O)C(=O)C=CC23CC4CC(OC4(c4ccccc4)C2)C31` (stereo not drawn), the MIC with Staphylococcus aureus [1] came out at 8 µg/mL (≈ 15.9 µM); against Enterococcus faecalis [2], 16 µg/mL (≈ 31.8 µM); against Staphylococcus aureus [3], 4 µg/mL (≈ 7.94 µM); in the test with Staphylococcus aureus [4], 1 µg/mL (≈ 1.99 µM); against Staphylococcus aureus [5], 2 µg/mL (≈ 3.97 µM); in the test with Staphylococcus aureus [6], 16 µg/mL (≈ 31.8 µM). Also, the MIC with Staphylococcus aureus [7] is 2 µg/mL (≈ 3.97 µM); against Staphylococcus aureus [8], 2 µg/mL (≈ 3.97 µM); with Enterococcus faecalis [9] it was 16 µg/mL (≈ 31.8 µM); with Enterococcus faecium [10] it was no more than 0.5 µg/mL; against Staphylococcus aureus [11], 16 µg/mL (≈ 31.8 µM); against Staphylococcus aureus [12], 8 µg/mL (≈ 15.9 µM). The minimal inhibitory concentration (MIC) in the test on Staphylococcus aureus [13] is 1 µg/mL (≈ 1.99 µM); with Enterococcus faecalis [14] it was no more than 0.5 µg/mL; in the test on Enterococcus faecium [15], 8 µg/mL (≈ 15.9 µM).
For `CC12CC34C=CC(=O)C(C)(CCC(=O)Nc5c(O)ccc(C(=O)O)c5O)C3C(O1)[C@@H](Cl)C2C4` (stereo partly drawn), the minimal inhibitory concentration (MIC) against Staphylococcus aureus [1] was found to be 8 µg/mL (≈ 16.8 µM); in the test on Enterococcus faecalis [2], 64 µg/mL (≈ 134 µM); against Staphylococcus aureus [3] it was 4 µg/mL (≈ 8.4 µM); against Staphylococcus aureus [4] it was 0.5 µg/mL (≈ 1.05 µM); in the test with Staphylococcus aureus [5], 0.5 µg/mL (≈ 1.05 µM); against Staphylococcus aureus [6] it was 8 µg/mL (≈ 16.8 µM). Further, the MIC was determined as 1 µg/mL (≈ 2.1 µM) in the test on Staphylococcus aureus [7]; 0.25 µg/mL (≈ 0.525 µM) in the test with Staphylococcus aureus [8]; 64 µg/mL (≈ 134 µM) in the test with Enterococcus faecalis [9]; 2 µg/mL (≈ 4.2 µM) against Enterococcus faecium [10]; 8 µg/mL (≈ 16.8 µM) against Staphylococcus aureus [11]; 8 µg/mL (≈ 16.8 µM) against Staphylococcus aureus [12]. The values for the minimal inhibitory concentration (MIC) against Staphylococcus aureus [13], in the test with Enterococcus faecalis [14] and against Enterococcus faecium [15] were 0.25 µg/mL (≈ 0.525 µM), 2 µg/mL (≈ 4.2 µM) and 8 µg/mL (≈ 16.8 µM), respectively.
`C[C@@H]1C2OC3(C)CC4(CC13)C(c1ccccc1)=CC(=O)C(C)(CCC(=O)Nc1c(O)ccc(C(=O)O)c1O)C24` (stereo partly drawn): the MIC was 0.5 µg/mL (≈ 0.941 µM) against Staphylococcus aureus [1]; 16 µg/mL (≈ 30.1 µM) in the test on Enterococcus faecalis [2]; less than 0.25 µg/mL against Staphylococcus aureus [3]; less than 0.25 µg/mL in the test on Staphylococcus aureus [4]; less than 0.25 µg/mL against Staphylococcus aureus [5]; 4 µg/mL (≈ 7.52 µM) in the test with Staphylococcus aureus [6]. The MIC against Staphylococcus aureus [7] is less than 0.25 µg/mL; in the test with Staphylococcus aureus [8], less than 0.25 µg/mL; with Enterococcus faecalis [9] it was 8 µg/mL (≈ 15 µM); against Enterococcus faecium [10], no more than 0.5 µg/mL; with Staphylococcus aureus [11], 1 µg/mL (≈ 1.88 µM); against Staphylococcus aureus [12] it was 0.5 µg/mL (≈ 0.941 µM). Moreover, the minimum inhibitory concentration (MIC) against Staphylococcus aureus [13] is less than 0.25 µg/mL; with Enterococcus faecalis [14] it was 8 µg/mL (≈ 15 µM); against Enterococcus faecium [15], 2 µg/mL (≈ 3.76 µM).
Regarding `CC12CC34CC1CC(O2)C3C(C)(CCC(=O)Nc1c(O)ccc(C(=O)O)c1O)C(=O)C=C4c1ccccc1` (stereo not drawn), the minimal inhibitory concentration (MIC) against Staphylococcus aureus [1] is 2 µg/mL (≈ 3.86 µM); in the test with Enterococcus faecalis [2], 8 µg/mL (≈ 15.5 µM); with Staphylococcus aureus [3] it was 0.5 µg/mL (≈ 0.966 µM); in the test on Staphylococcus aureus [4], less than 0.25 µg/mL; with Staphylococcus aureus [5], less than 0.25 µg/mL; against Staphylococcus aureus [6] it was 1 µg/mL (≈ 1.93 µM). Also, the minimal inhibitory concentration (MIC) against Staphylococcus aureus [7] was 0.25 µg/mL (≈ 0.483 µM); against Staphylococcus aureus [8] it was less than 0.25 µg/mL; in the test on Enterococcus faecalis [9] it was 16 µg/mL (≈ 30.9 µM); against Enterococcus faecium [10] it was no more than 0.5 µg/mL; in the test with Staphylococcus aureus [11], 1 µg/mL (≈ 1.93 µM); with Staphylococcus aureus [12] it was 0.5 µg/mL (≈ 0.966 µM). Moreover, the MIC is less than 0.25 µg/mL in the test with Staphylococcus aureus [13], no more than 0.5 µg/mL against Enterococcus faecalis [14] and 2 µg/mL (≈ 3.86 µM) in the test on Enterococcus faecium [15].
